Results reported in US8263606B2 (Xenon Pharmaceuticals Inc., priority 2008, dated 2012).

Assays:
sodium channel = experiment: Guanidine influx assay (14C-guanidine radiotracer flux, in vitro); format: cell-based, human or rat; details: guanidine influx assay using a known cell line that expresses a sodium channel
Outline: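 Cells (human/rat Nav, endogenous or recombinant), ~100,000/well, 20-24 h 37 °C/5% CO2. Wash LNHBSS (150 mM choline Cl, HEPES, glucose). Add cpd + aconitine/14C-guanidine mix, RT. Wash, dry, scintillation count. IC50: 4-PL fit; selectivity as IC50 ratio vs reference channel, e.g. Nav1.5.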

CYP3A4 = CYP3A4 (Homo sapiens, UniProt P08684); experiment: Cytochrome P450 (CYP450) Inhibition Assay, CYP3A4 (Vivid fluorescence, BOMCC substrate); details: human, P450 Baculosomes (recombinant CYP3A4), probe BOMCC (Vivid substrate)
Sequence of CYP3A4 (P08684 whole entry): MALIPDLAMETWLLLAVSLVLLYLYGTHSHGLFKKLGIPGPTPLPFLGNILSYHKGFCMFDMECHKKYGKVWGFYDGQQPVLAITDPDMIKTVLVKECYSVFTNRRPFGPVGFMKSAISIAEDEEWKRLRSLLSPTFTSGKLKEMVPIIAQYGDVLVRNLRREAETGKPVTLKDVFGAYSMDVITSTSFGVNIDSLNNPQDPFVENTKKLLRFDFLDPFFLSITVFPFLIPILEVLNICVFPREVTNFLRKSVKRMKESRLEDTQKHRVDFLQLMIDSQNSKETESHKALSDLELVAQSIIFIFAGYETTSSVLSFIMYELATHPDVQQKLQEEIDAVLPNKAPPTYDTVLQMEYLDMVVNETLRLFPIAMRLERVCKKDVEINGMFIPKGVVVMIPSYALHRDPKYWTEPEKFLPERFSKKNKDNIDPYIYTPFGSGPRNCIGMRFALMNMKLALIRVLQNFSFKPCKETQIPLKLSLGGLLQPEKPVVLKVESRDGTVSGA

Compound	IC50 (sodium channel)	melting point	inhibition at 10 µM (CYP3A4)	IC50 (sodium channel; activity level class)
Cc1nc2cc3c(cc2s1)C1(CO3)C(=O)N(Cc2ccccn2)c2ccccc21 (stereo not drawn) [Example 9.21, 2-methyl-1′-(pyridin-2-ylmethyl)spiro[furo[2,3-f][1,3]benzothiazole-7,3′-indol]-2′(1′H)-one]	–	249 to 250 °C	< 50%	1000 to 10000 nM
Cc1onc(-c2c(Cl)cccc2Cl)c1CN1C(=O)C2(COc3cc4c(cc32)OCO4)c2ccccc21 (stereo not drawn) [Example 6.4, 1′-{[3-(2,6-dichlorophenyl)-5-methylisoxazol-4-yl]methyl}spiro[furo[2,3-f][1,3]benzodioxole-7,3′-indol]-2′(1′H)-one]	–	190 to 192 °C	> 50%	1000 to 10000 nM
Cn1c(=O)oc2cc3c(cc21)C1(CO3)C(=O)Nc2ccccc21 (stereo not drawn) [Example 3.14, 1-methylspiro[furo[3,2-f][1,3]benzoxazole-7,3′-indole]-2,2′(1′H,1′H)-dione]	–	> 250 °C	< 50%	1000 to 10000 nM
Cc1ccc(F)c2c1NC(=O)C21COc2cc3c(cc21)CCO3 (stereo not drawn) [Example 3.17, 4′-fluoro-7′-methyl-5,6-dihydrospiro[benzo[1,2-b:5,4-b′]difuran-3,3′-indol]-2′(1′H)-one]	–	> 250 °C	> 50%	100 to 1000 nM
O=C1N(Cc2ncccn2)c2ccccc2C12COc1cc3c(cc12)OCCO3 (stereo not drawn) [Example 5.32, 1′-(pyrimidin-2-ylmethyl)-2,3-dihydrospiro[furo[2,3-g][1,4]-benzodioxine-8,3′-indol]-2′(1′H)-one]	–	278 to 279 °C	< 50%	1 to 100 nM
Cn1c(=O)oc2cc3c(cc21)OCC31C(=O)N(C(c2ccccc2)c2ccccc2)c2ccccc21 (stereo not drawn) [Example 2.16, 1′-(diphenylmethyl)-3-methylspiro[furo[2,3-f][1,3]benzoxazole-7,3′-indole]-2,2′(1′H,3H)-dione]	–	228 to 229 °C	< 50%	≥ 10000 nM
O=C1N(Cc2nc(C(F)(F)F)cs2)c2ccccc2C12COc1cc3c(cc12)OCCO3 (stereo not drawn) [Example 5.23, 1′-{[4-(trifluoromethyl)-1,3-thiazol-2-yl]methyl}-2,3-dihydrospiro[furo[2,3-g][1,4]benzodioxine-8,3′-indol]-2′(1′H)-one]	–	169 to 170 °C	> 50%	1 to 100 nM
O=C1N(Cc2ccc(F)cn2)c2ccccc2C12COc1cc3c(cc12)OCCO3 (stereo not drawn) [Example 4.100, 1-[(5-fluoropyridin-2-yl)methyl]-2,3-dihydrospiro[furo[2,3-g][1,4]benzodioxine-8,3′-indol]-2′(1′H)-one]	–	174 to 176 °C	< 50%	1 to 100 nM
O=C1N(Cc2nc3ccccc3s2)c2ccccc2C12COc1cc3c(cc12)OCCO3 (stereo not drawn) [Example 4.119, 1-(1,3-benzothiazol-2-ylmethyl)-2,3-dihydrospiro[furo[2,3-g][1,4]benzodioxine-8,3′-indol]-2′(1′H)-one]	–	164 to 166 °C	> 50%	1 to 100 nM
CCOC(=O)N1C(=O)C2(COc3cc4c(cc32)OCCO4)c2ccccc21 (stereo not drawn) [Example 18, ethyl 2′-oxo-2,3-dihydrospiro[furo[2,3-g][1,4]benzodioxine-8,3′-indole]-1′(2′H)-carboxylate]	1 to 100 nM	198 to 200 °C	< 50%	–
COC(=O)c1cccc(CN2C(=O)C3(COc4cc5c(cc43)OCCO5)c3ccccc32)c1 (stereo not drawn) [Example 9.53, methyl 3-[(2′-oxo-2,3-dihydrospiro[furo[2,3-g][1,4]benzodioxine-8,3′-indol]-1′(2′H)-yl)methyl]benzoate]	1 to 100 nM	89 to 97 °C	> 50%	–
COc1cc(CN2C(=O)C3(COc4cc5c(cc43)OCCO5)c3ccccc32)ccc1F (stereo not drawn) [Example 4.95, 1-(4-fluoro-3-methoxybenzyl)-2,3-dihydrospiro[furo[2,3-g][1,4]benzodioxine-8,3′-indol]-2′(1′H)-one]	–	161 to 163 °C	> 50%	1 to 100 nM
O=C1N(Cc2ccc(Cl)s2)c2ccccc2C12COc1ccc(OCc3ccccc3)cc12 (stereo not drawn) [Example 1.4, 5-(benzyloxy)-1′-[(5-chloro-2-thienyl)methyl]spiro[1-benzofuran-3,3′-indol]-2′(1′H)-one]	–	132 to 135 °C	> 50%	1000 to 10000 nM
Cn1c(=O)oc2cc3c(cc21)OCC31C(=O)N(Cc2ccc(C(F)(F)F)o2)c2ccccc21 (stereo not drawn) [Example 5.8, 3-methyl-1′-{[5-(trifluoromethyl)furan-2-yl]methyl}spiro[furo[2,3-f][1,3]benzoxazole-7,3′-indole]-2,2′(1′H,3H)-dione]	–	198 to 199 °C	> 50%	1000 to 10000 nM
CC(C)c1ncc(CN2C(=O)C3(COc4cc5c(cc43)OCO5)c3ccccc32)o1 (stereo not drawn) [Example 4.77, 1′-[(2-isopropyl-1,3-oxazol-5-yl)methyl]spiro[furo[2,3-f][1,3]benzodioxole-7,3′-indol]-2′(1′H)-one]	–	75 to 77 °C	> 50%	1 to 100 nM
COCCOc1ccc2c(c1)OCC21C(=O)Nc2ccccc21 (stereo not drawn) [Example 3.46, 6-(2-methoxyethoxy)spiro[1-benzofuran-3,3′-indol]-2′(1′H)-one]	–	172 to 174 °C	< 50%	1000 to 10000 nM

Results, then the compound that gave them:

IC50 (sodium channel)	melting point	inhibition at 10 µM (CYP3A4)	IC50 (sodium channel; activity level class)	Compound
1 to 100 nM	157 to 158 °C	< 50%	–	O=C1N(CCCO)c2ccccc2C12COc1cc3c(cc12)OCCO3 (stereo not drawn) [Example 17.2, 1′-(3-hydroxypropyl)-2,3-dihydrospiro[furo[2,3-g][1,4]benzodioxine-8,3′-indol]-2′(1′H)-one]
1 to 100 nM	> 200 °C	> 50%	–	Cl.O=C1N(CC2CCNCC2)c2ccccc2C12COc1cc(F)c(F)cc12 (stereo not drawn) [Example 11.111, 5,6-difluoro-1′-(piperidin-4-ylmethyl)spiro[1-benzofuran-3,3′-indol]-2′(1′H)-one hydrochloride]
1000 to 10000 nM	277 to 279 °C	> 50%	–	Cc1ccc(NC(=O)CN2C(=O)C3(COc4cc5c(cc43)CCO5)c3ccccc32)c(C)c1 (stereo not drawn) [Example 12.54, N-(2,4-dimethylphenyl)-2-(2′-oxo-5,6-dihydrospiro[benzo[1,2-b:5,4-b′]difuran-3,3′-indol]-1′(2′H)-yl)acetamide]
1 to 100 nM	207 to 209 °C	> 50%	–	N#Cc1csc(CN2C(=O)C3(COc4cc5c(cc43)OCO5)c3ccccc32)c1 (stereo not drawn) [Example 11.74, 5-[(2′-oxospiro[furo[2,3-][1,3′]benzodioxole-7,3′-indol]-1′(2′H)-yl)methyl]thiophene-3-carbonitrile]
100 to 1000 nM	55 to 60 °C	> 50%	–	C[C@@H](CN1C(=O)C2(COc3cc4c(cc32)CCO4)c2ccccc21)OCc1ccc(F)cc1 (stereo partly drawn) [Example 14.2, 1′-{(2S)-2-[(4-fluorobenzyl)oxy]propyl}-5,6-dihydrospiro[benzo[1,2-b:5,4-b′]difuran-3,3′-indol]-2′(1′H)-one]
100 to 1000 nM	105 to 106 °C	> 50%	–	CCC(CC)CNC(=O)c1cccc(CN2C(=O)C3(COc4cc5c(cc43)CCO5)c3ccccc32)c1 (stereo not drawn) [Example 12.3, N-(2-ethylbutyl)-3-[(2′-oxo-5,6-dihydrospiro[benzo[1,2-b:5,4-b′]difuran-3,3′-indol]-1′(2′H)-yl)methyl]benzamide]
100 to 1000 nM	202 to 203 °C	> 50%	–	CNC(=O)c1cc(CN2C(=O)C3(COc4cc5c(cc43)OCO5)c3ccccc32)oc1C(F)(F)F (stereo not drawn) [Example 12.57, N-methyl-5-[(2′-oxospiro[furo[2,3-f][1,3]benzodioxole-7,3′-indol]-1′(2′H)-yl)methyl]-2-(trifluoromethyl)furan-3-carboxamide]
1 to 100 nM	173 to 175 °C	> 50%	–	O=C1N(Cc2ccc(C(F)F)o2)c2ccccc2C12COc1cc3c(cc12)OCCO3 (stereo not drawn) [Example 11.110, 1-{[5-(difluoromethyl)furan-2-yl]methyl}-2,3-dihydrospiro[furo[2,3-g][1,4]benzodioxine-8,3′-indol]-2′(1′H)-one]
1000 to 10000 nM	98 to 101 °C	> 50%	–	CC(C)CCNCCCN1C(=O)C2(COc3cc4c(cc32)CCO4)c2ccccc21.Cl (stereo not drawn) [Example 15.1, 1′-{3-[(3-methylbutyl)amino]propyl}-5,6-dihydrospiro[benzo[1,2-b:5,4-b′]difuran-3,3′-indol]-2′(1′H)-one hydrochloride]
100 to 1000 nM	225 to 227 °C	> 50%	–	O=C1N(Cc2cccc(O)c2)c2ccccc2C12COc1cc3c(cc12)CCO3 (stereo not drawn) [Example 11.45, 1′-(3-hydroxybenzyl)-5,6-dihydrospiro[benzo[1,2-b:5,4-b′]difuran-3,3′-indol]-2′(1′H)-one]
1 to 100 nM	181 to 182 °C	< 50%	–	O=C1N(Cc2ncccc2C(F)F)c2ccccc2[C@]12COc1cc3c(cc12)OCCO3 [Example 11.81, (8S)-1′-{[3-(difluoromethyl)pyridin-2-yl]methyl}-2,3-dihydrospiro[furo[2,3-g][1,4]benzodioxine-8,3′-indol]-2′(1′H)-one]
100 to 1000 nM	195 to 197 °C	> 50%	–	O=C1N(Cc2cnc(N3CCCCC3)s2)c2ccccc2C12COc1cc3c(cc12)OCO3 (stereo not drawn) [Example 11.3, 1′-[(2-piperidin-1-yl-1,3-thiazol-5-yl)methyl]spiro[furo[2,3-f][1,3]benzodioxole-7,3′-indol]-2′(1′H)-one]
